Experimental data as given in ChEMBL document CHEMBL3046720, “Molecular properties of fatty acids related to PPAR binding and metabolic diseases” (Med Chem Res, 2013).

How the values were obtained:
[1] = target: T1, Peroxisome proliferator-activated receptor delta (Homo sapiens, UniProt Q03181); test: Displacement of [3H]GW2433 from Homo sapiens (human) PPARdelta receptor by scintillation proximity assay
T1 sequence (Q03181 whole entry): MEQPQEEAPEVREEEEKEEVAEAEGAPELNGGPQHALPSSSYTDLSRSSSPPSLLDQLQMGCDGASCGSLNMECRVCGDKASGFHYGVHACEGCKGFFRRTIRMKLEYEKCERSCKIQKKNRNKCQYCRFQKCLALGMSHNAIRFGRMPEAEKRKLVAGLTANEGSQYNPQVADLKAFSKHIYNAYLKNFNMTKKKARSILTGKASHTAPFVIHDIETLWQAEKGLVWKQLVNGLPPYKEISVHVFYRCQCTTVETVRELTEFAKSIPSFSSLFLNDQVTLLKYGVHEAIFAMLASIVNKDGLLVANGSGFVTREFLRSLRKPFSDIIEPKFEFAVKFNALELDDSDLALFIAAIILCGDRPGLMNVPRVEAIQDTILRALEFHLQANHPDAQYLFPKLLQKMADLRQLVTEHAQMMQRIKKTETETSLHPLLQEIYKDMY

[2] = target: T2, Peroxisome proliferator-activated receptor alpha (Homo sapiens, UniProt Q07869); test: Displacement of [3H]GW2331 from Homo sapiens (human) PPARalpha receptor by scintillation proximity assay
T2 sequence (Q07869 whole entry): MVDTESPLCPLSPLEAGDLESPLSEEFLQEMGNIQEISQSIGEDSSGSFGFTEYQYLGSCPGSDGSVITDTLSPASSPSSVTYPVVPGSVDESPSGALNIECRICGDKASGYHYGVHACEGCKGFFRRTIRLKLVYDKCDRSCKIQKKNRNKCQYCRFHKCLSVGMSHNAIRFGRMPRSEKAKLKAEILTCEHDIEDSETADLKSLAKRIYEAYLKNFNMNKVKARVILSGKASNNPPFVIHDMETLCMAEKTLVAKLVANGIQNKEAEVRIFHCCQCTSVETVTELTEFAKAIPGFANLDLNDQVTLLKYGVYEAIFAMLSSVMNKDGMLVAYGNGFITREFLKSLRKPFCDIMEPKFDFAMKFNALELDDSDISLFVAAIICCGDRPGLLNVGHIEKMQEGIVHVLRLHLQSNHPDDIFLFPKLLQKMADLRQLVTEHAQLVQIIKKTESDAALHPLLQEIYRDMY

[3] = target: T3, Peroxisome proliferator-activated receptor gamma (Homo sapiens, UniProt P37231); test: Displacement of [3H]BRL49653 from Homo sapiens (human) PPARgamma receptor by scintillation proximity assay
T3 sequence (P37231 whole entry): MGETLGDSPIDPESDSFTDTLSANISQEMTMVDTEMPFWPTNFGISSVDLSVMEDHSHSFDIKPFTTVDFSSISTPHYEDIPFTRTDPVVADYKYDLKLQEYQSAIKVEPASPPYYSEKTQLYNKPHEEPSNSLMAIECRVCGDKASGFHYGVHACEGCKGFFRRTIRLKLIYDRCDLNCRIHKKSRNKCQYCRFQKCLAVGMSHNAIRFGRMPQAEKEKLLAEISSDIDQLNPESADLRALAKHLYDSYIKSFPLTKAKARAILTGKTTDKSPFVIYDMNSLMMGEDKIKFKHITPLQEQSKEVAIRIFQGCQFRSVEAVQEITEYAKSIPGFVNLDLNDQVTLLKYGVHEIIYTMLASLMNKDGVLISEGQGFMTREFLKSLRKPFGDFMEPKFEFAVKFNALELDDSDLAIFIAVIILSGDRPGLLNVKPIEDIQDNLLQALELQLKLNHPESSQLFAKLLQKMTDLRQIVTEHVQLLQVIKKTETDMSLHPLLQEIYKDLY

IC50 [1] [µM]	IC50 [2] [µM]	IC50 [3] [µM]	SMILES
> 30	> 30	–	CCCCCCCCCCCCCCCCCCCC(=O)O [ARACHIDIC ACID]
> 30	> 30	30	CCCCCCCCCC(=O)O [DECANOIC ACID]
> 30	> 30	–	CCCCCCCCCCCC(=O)O [DODECANOATE]
0.75	–	–	CCCCC/C=C\C/C=C\C/C=C\CCCCC(=O)O [GAMOLENIC ACID]
–	1.5	–	CCCCCCCCCCCCCCCC(=O)O [PALMITIC ACID]
9.6	–	6.4	CCCCCC/C=C\CCCCCCCC(=O)O [PALMITOLEIC ACID]

More lines, now with the values behind:

SMILES	IC50 [1] [µM]	IC50 [2] [µM]	IC50 [3] [µM]
CCCCC/C=C\C/C=C\C/C=C\C/C=C\CCCC(=O)O [ARACHIDONIC ACID]	3.1	–	1.6
CCCCCCCCCCCCCCCCCCCCCC(=O)O [BEHENIC ACID]	> 30	> 30	–
CCCCC/C=C\C/C=C\C/C=C\CCCCCCC(=O)O [DIHOMO-GAMMA-LINOLENIC ACID]	4.3	–	2.4
CCCCCCCC/C=C\CCCCCCCCCCCC(=O)O [ERUCIC ACID]	> 30	> 30	–
CC/C=C\C/C=C\C/C=C\C/C=C\C/C=C\CCCC(=O)O [ICOSAPENT]	4	–	1.6
CCCCC/C=C\C/C=C\CCCCCCCC(=O)O [LINOLEIC ACID]	10	–	6.2
CC/C=C\C/C=C\C/C=C\CCCCCCCC(=O)O [LINOLENIC ACID]	16	–	–
CCCCCCCCCCCCCC(=O)O [MYRISTIC ACID]	–	5.4	21
CCCCCCCC/C=C\CCCCCCCC(=O)O [OLEIC ACID]	5.3	–	4.1
CCCCCCCCCCCCCCCCCC(=O)O [STEARIC ACID]	–	1.1	–
